Reference: EP4772514A1, “MACROCYCLIC COMPOUNDS, PREPARATION METHOD THEREFOR, AND USE THEREOF” (Genfleet Therapeutics (Shanghai) Inc., priority 2023, dated 2025)
pIC50: −log10 of the molar value. Where two headings read alike, the source gives them in different places.

How the values were obtained:
Format in all cases: cell-based
[1] = tested on: p-ERK; assay: Cell p-ERK assay (HTRF, Advance ERK phospho-T202/Y204 kit) in NCI-H441 cells; conditions: NCI-H441, human non-small cell lung cancer cell strain, KRAS G12V mutation, 3 h compound incubation
Method in brief: (§1)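 Phospho-ERK (T202/Y204) measured by HTRF in lysates of AsPC-1 (KRAS G12D) or NCI-H441 (KRAS G12V) cells after 3 h compound exposure at 37 °C in RPMI-1640 + 10% FBS, 0.1% DMSO. Inhibition normalised to DMSO and blank wells; IC50 by four-parameter fit.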

[2] = tested on: p-ERK; assay: Cell p-ERK assay (HTRF, Advance ERK phospho-T202/Y204 kit) in AsPC-1 cells; conditions: AsPC-1, human pancreatic cancer cell strain, KRAS G12D mutation, 3 h compound incubation
Method in brief: as §1

[3] = tested on: NCI-H441 cells; assay: 3D cell proliferation assay (CellTiter Glo-3D) in NCI-H441 cells; conditions: NCI-H441, human lung cancer cell strain, KRAS G12V mutation, 3D culture, 2% FBS, 5 days, read-out: H441 AP IC50
Method in brief: (§2)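 After a 5-day exposure at 37 °C to 3.16-fold serial dilutions (final DMSO 0.1%) in 2% FBS RPMI-1640, ATP luminescence (CellTiter-Glo 3D) was read. Cells were AsPC-1 (KRAS G12D) or NCI-H441 (KRAS G12V), 800 per well; inhibition used DMSO and medium-only controls, with four-parameter curve fitting giving IC50.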

[4] = tested on: AsPC-1 cells; assay: 3D cell proliferation assay (CellTiter Glo-3D) in AsPC-1 cells; conditions: AsPC-1, human pancreatic cancer cell strain, KRAS G12D mutation, 3D culture, 2% FBS, 5 days, read-out: AsPC-1 AP IC50
Method in brief: as §2

SMILES | pIC50 ([1]; Homo sapiens, NCI-H441, 3 h) | pIC50 ([2]; ASPC1) | pIC50 ([3]; Homo sapiens, NCI-H441, 120 h) | pIC50 ([4]; ASPC1, 120 h) | pIC50 [1] | pIC50 [2] | pIC50 [3] | pIC50 [4]
CCn1nc2c(c1-c1cc(C#CCN3CCC(C#N)CC3)cnc1[C@H](C)OC)CC(C)(C)COC(=O)[C@@H]1CCCN(N1)C(=O)[C@@H](NC(=O)[C@H]1[C@H](C)[C@@H]1C)Cc1nc(cs1)/C=C/2 (atropisomer, axis not shown; (Ra)) [Compound Z73, (1r,2R,3S)-N-((4^2Z,8^3S,2E,6S)-(Ra)-1^5-(5-(3-(4-cyanopiperidin-1-yl)prop-1-yn-1-yl)-2-((S)-1-methoxyethyl)pyridin-3-yl)-1^1-ethyl-12,12-dimethyl-7,9-dioxo-8^1,8^2,8^3,8^4,8^5,8^6-hexahydro-1^1H-10-oxa-4(4,2)-thiazola-8(1,3)-pyridazina-1(3,4)-pyrrolacyclotridecaphan-2-en-6-yl)-2,3-dimethylcyclopropane-1-carboxamide] | 9.06 | 8.76 | 9.04 | 8.87 |  |  |  | 
CCn1cc2c(c1-c1cc(C#CCN3CCCOCC3)cnc1[C@H](C)OC)CC(C)(C)COC(=O)[C@@H]1CCCN(N1)C(=O)[C@@H](NC(=O)[C@H]1[C@H](C)[C@@H]1C)Cc1nc(cs1)/C=C/2 (atropisomer, axis not shown; (Ra)) [Compound Z69, (1r,2R,3S)-N-((4^2Z,8^3S,2E,6S)-(Ra)-1^5-(5-(3-(1,4-oxazepan-4-yl)prop-1-yn-1-yl)-2-((S)-1-methoxyethyl)pyridin-3-yl)-1^1-ethyl-12,12-dimethyl-7,9-dioxo-8^1,8^2,8^3,8^4,8^5,8^6-hexahydro-1^1H-10-oxa-4(4,2)-thiazola-8(1,3)-pyridazina-1(3,4)-pyrrolacyclotridecaphan-2-en-6-yl)-2,3-dimethylcyclopropane-1-carboxamide] | 9.05 | 8.81 | 9.24 | 9.17 |  |  |  | 
CCn1c(-c2cc(C#CCN3CCS(=O)(=O)CC3)cnc2[C@H](C)OC)c2c3cc(ccc31)NC(=O)OC[C@H](NC(=O)[C@H]1[C@H](C)[C@@H]1C)C(=O)N1CCC[C@H](N1)C(=O)OCC(C)(C)C2 (atropisomer, axis not shown; (Ra)) [Compound Z36, (1r,2R,3S)-N-((7^3S,9S)-1^2-(5-(3-(1,1-dioxidothiomorpholino)prop-1-yn-1-yl)-2-((S)-1-methoxyethyl)pyridin-3-yl)-1^1-ethyl-(Ra)-3,3-dimethyl-6,8,12-trioxo-7^1,7^2,7^3,7^4,7^5,7^6-hexahydro-1^1H-5,11-dioxa-13-aza-1(3,5)-indola-7(3,1)-pyridazinaocycloundecan-9-yl)-2,3-dimethylcyclopropane-1-carboxamide] | 7.39 | 6.64 | 7.39 | 6.43 |  |  |  | 
CO[C@@H](C)c1ncc(C#CCN2CCS(=O)(=O)CC2)cc1-c1c2c(nn1C(C)C)/C=C/c1csc(n1)C[C@H](NC(=O)[C@H]1[C@H](C)[C@@H]1C)C(=O)N1CCC[C@H](N1)C(=O)OCC(C)(C)C2 (single isomer, unassigned) [Compound Z15] | 8.17 | 7.69 | 8.37 | 7.98 |  |  |  | 
CCn1cc2c(c1-c1cc(C#CCN3CCC(C#N)(CN)CC3)cnc1[C@H](C)OC)CC(C)(C)COC(=O)[C@@H]1CCCN(N1)C(=O)[C@@H](NC(=O)[C@H]1[C@H](C)[C@@H]1C)Cc1nc(cs1)/C=C/2 (atropisomer, axis not shown; (Ra)) [Compound Z65] | 9.24 | 9.85 | 9.77 | 10.00 |  |  |  | 
CCn1cc2c(c1-c1cc(C#CCN3CCS(=O)(=O)CC3)cnc1[C@H](C)OC)CC(C)(C)COC(=O)[C@@H]1CCCN(N1)C(=O)[C@@H](NC(=O)[C@H]1[C@H](C)[C@@H]1C)Cc1nc(cs1)/C=C/2 (atropisomer, axis not shown; (Ra)) [Compound Z118, (1r,2R,3S)-N-((4^2Z,8^3S,2E,6S)-(Ra)-1^5-(5-(3-(1,1-dioxidothiomorpholino)prop-1-yn-1-yl)-2-((S)-1-methoxyethyl)pyridin-3-yl)-1^1-ethyl-12,12-dimethyl-7,9-dioxo-8^1,8^2,8^3,8^4,8^5,8^6-hexahydro-1^1H-10-oxa-4(4,2)-thiazola-8(1,3)-pyridazina-1(3,4)-pyrrolacyclotridecaphan-2-en-6-yl)-2,3-dimethylcyclopropane-1-carboxamide] | 9.33 | 9.70 | 9.55 | 9.62 |  |  |  | 
CCn1c(F)c2c(c1-c1cc(C#CCN3CCS(=O)(=O)CC3)cnc1[C@H](C)OC)CC(C)(C)COC(=O)[C@@H]1CCCN(N1)C(=O)[C@@H](NC(=O)[C@H]1[C@H](C)[C@@H]1C)Cc1nc(cs1)/C=C/2 (atropisomer, axis not shown; (Ra)) [Compound Z80, (1r,2R,3S)-N-((4^2Z,8^3S,2E,6S)-(Ra)-1^5-(5-(3-(1,1-dioxidothiomorpholino)prop-1-yn-1-yl)-2-((S)-1-methoxyethyl)pyridin-3-yl)-1^1-ethyl-1^2-fluoro-12,12-dimethy^l-7,9-dioxo-8^1,8^2,8^3,8^4,8^5,8^6-hexahydro-1^1H-10-oxa-4(4,2)-thiazola-8(1,3)-pyridazina-1(3,4)-pyrrolacyclotridecaphan-2-en-6-yl)-2,3-dimethylcyclopropane-1-carboxamide] | 9.70 | 9.62 | 9.74 | 9.80 |  |  |  | 
CCn1cc2c(c1-c1cc(C#CCN3CCOCC3)cnc1[C@H](C)OC)CC(C)(C)COC(=O)[C@@H]1CCCN(N1)C(=O)[C@@H](NC(=O)[C@H]1[C@H](C)[C@@H]1C)Cc1nc(cs1)/C=C/2 (atropisomer, axis not shown; (Ra)) [Compound Z172, (1r,2R,3S)-N-((4^2Z, 8^1S, 2E, 6S)-1^1-ethyl-(Ra)-1^5-(2-((S)-1-methoxyethyl)-5-(3-morpholinoprop-1-yn-1-yl)pyridin-3-yl)-12,12-dimethyl-7,9-dioxo-8^1,8^2,8^3,8^4,8^5,8^6-hexahydro-1^1H-10-oxa-4(4,2)-thiazola-8(1,3)-pyridazina-1(3,4)-pyrrolacyclotridecaphan-2-en-6-yl)-2,3-dimethylcyclopropane-1-carboxamide] | 9.12 | 9.13 | 9.39 | 9.40 |  |  |  | 
CCn1cc2c(c1-c1cc(C#CCN3CCC(C#N)(CN)CC3)cnc1[C@H](C)OC)CC(C)(C)COC(=O)[C@@H]1CCCN(N1)C(=O)[C@@H](NC(=O)[C@H]1[C@@H]3COC[C@@H]31)Cc1nc(co1)/C=C/2 (atropisomer, axis not shown; (Ra)) [Compound Z89, (1R,5S,6r)-N-((4^2Z,8^3S,2E, 6S)-(Ra)-1^5-(5-(3-(4-(aminomethyl)-4-cyanopiperidin-1-yl)prop-1-yn-1-yl)-2-((S)-1-methoxyethyl)pyridin-3-yl)-1^1-ethyl-12,12-dimethyl-7,9-dioxo-8^1,8^2,8^3,8^4,8^5,8^6-hexahydro-1^1 H-10-oxa-4(4,2)-oxazola-8(1,3)-pyridazina-1(3,4)-pyrrolacyclotridecaphan-2-en-6-yl)-3-oxabicyclo[3.1.0]hexane-6-carboxamide] | 9.64 | 9.89 | 9.82 | 9.96 |  |  |  | 
CCn1c(F)c2c(c1-c1cc(N3CCN(C)CC3)cnc1C(C)OC)CC(C)(C)COC(=O)C1CCCN(N1)C(=O)C(NC(=O)C1C(C)C1C)Cc1nc(cs1)C=C2 [Compound Z75, (1r,2S,3R)-N-((4^2Z,8^3R,2E,6R)-1^1-ethyl-1^2-fluoro-1^5-(2-((S)-1-methoxyethyl)-5-(4-methylpiperazin-1-yl)pyridin-3-yl)-12,12-dimethyl-7,9-dioxo-8^1,8^2,8^3,8^4,8^5,8^6-hexahydro-1^1H-10-oxa-4(4,2)-thiazola-8(1,3)-pyridazina-1(3,4)-pyrrolacyclotridecaphan-2-en-6-yl)-2,3-dimethylcyclopropane-1-carboxamide] |  |  |  |  | 8.89 | 8.84 | 8.73 | 8.66
